ChEMBL document CHEMBL1255366, “First report of cfr-mediated resistance to linezolid in human staphylococcal clinical isolates recovered in the United States” (2008)
In brackets after ≈: the same amount, converted by molar mass.

Assays:
Format in all cases: functional
[1] = test system: Staphylococcus aureus; assay: Antimicrobial activity against linezolid-resistant Staphylococcus aureus isolate 004-737X expressing cfr and ermA gene isolated from paraplegic patient by broth microdilution method
[2] = test system: Staphylococcus epidermidis; assay: Antimicrobial activity against Staphylococcus epidermidis isolate 426-3147L expressing cfr gene by broth microdilution CLSI method
[3] = test system: Staphylococcus aureus; assay: Antimicrobial activity against linezolid-resistant Staphylococcus aureus isolate 004-737X expressing cfr and ermA gene isolated from paraplegic patient by Etest method
[4] = test system: Staphylococcus epidermidis; assay: Antimicrobial activity against Staphylococcus epidermidis isolate 426-3147L expressing cfr gene by Etest method
[5] = test system: Staphylococcus aureus; assay: Antimicrobial activity against linezolid-resistant Staphylococcus aureus isolate 004-737X expressing cfr and ermA gene isolated from paraplegic patient by disk diffusion method
[6] = test system: Staphylococcus epidermidis; assay: Antimicrobial activity against Staphylococcus epidermidis isolate 426-3147L expressing cfr gene by disk diffusion method

SMILES	MIC [1] [µg/mL]	MIC [2] [µg/mL]	MIC [3] [µg/mL]	MIC [4] [µg/mL]	diameter of the inhibition zone (DIZ) [5] [mm]	diameter of the inhibition zone (DIZ) [6] [mm]
O=C(N[C@H](CO)[C@H](O)c1ccc([N+](=O)[O-])cc1)C(Cl)Cl [CHLORAMPHENICOL]	> 256	> 256	–	–	–	–
O=C(O)c1cn(C2CC2)c2cc(N3CCNCC3)c(F)cc2c1=O [CIPROFLOXACIN]	> 32	–	–	–	–	–
CCC[C@@H]1C[C@@H](C(=O)N[C@@H]([C@H]2O[C@H](SC)[C@H](O)[C@@H](O)[C@H]2O)[C@H](C)Cl)N(C)C1 [CLINDAMYCIN]	> 256	> 256	–	–	–	–
CC[C@H]1OC(=O)[C@H](C)[C@@H](O[C@H]2C[C@@](C)(OC)[C@@H](O)[C@H](C)O2)[C@H](C)[C@@H](O[C@@H]2O[C@H](C)C[C@H](N(C)C)[C@H]2O)[C@](C)(O)C[C@@H](C)C(=O)[C@H](C)[C@@H](O)[C@]1(C)O [ERYTHROMYCIN]	> 256	> 4	–	–	–	–
CC(=O)NC[C@H]1CN(c2ccc(N3CCOCC3)c(F)c2)C(=O)O1 [LINEZOLID]	8 (≈ 23.7 µM)	> 256	8 (≈ 23.7 µM)	> 256	19	6
C/C(=C\C(=O)OCCCCCCCCC(=O)O)C[C@@H]1OC[C@H](C[C@@H]2O[C@H]2[C@@H](C)[C@H](C)O)[C@@H](O)[C@H]1O [MUPIROCIN]	0.25 (≈ 0.499 µM)	64 (≈ 128 µM)	–	–	–	–
Cc1onc(-c2ccccc2)c1C(=O)N[C@@H]1C(=O)N2[C@@H]1SC(C)(C)[C@@H]2C(=O)O [OXACILLIN]	> 2	> 2	–	–	–	–
C=C[C@]1(C)C[C@@H](OC(=O)CS[C@@H]2C[C@H]3CC[C@@H](C2)N3C)[C@]2(C)[C@H](C)CC[C@]3(CCC(=O)[C@H]32)[C@@H](C)[C@@H]1O [RETAPAMULIN]	32 (≈ 61.8 µM)	> 32	–	–	–	–
CN(C)[C@@H]1C(O)=C(C(N)=O)C(=O)[C@@]2(O)C(O)=C3C(=O)c4c(O)cccc4[C@@](C)(O)[C@H]3C[C@@H]12 [TETRACYCLINE]	> 8	> 8	–	–	–	–
